# Measurements: patent publication US20110245148A1, “ACETIC ACID AND A BUFFER” (priority 2008, published 2011)
# Counter-ions that a name gives are not always drawn. Like-named read-outs stand apart in the source and are kept apart here.
# What was measured:
# [1] = tested on: P. aeruginosa biofilms; test: continuous flow chamber biofilm, 3-day-old, harvested and plated for viability; assay type: cell-based, P. aeruginosa PAO1; details: for eradication of mature biofilm (viability on LB plates): 24 hours
# Description: (§1) The wild-type P. aeruginosa PAO1 used for the planktonic and biofilm experiments was obtained from the Pseudomonas Genetic Stock Center (www.pseudomonas.med.ecu.edu, strain PAO0001). The wild-type S. aureus 8325-4, used for planktonic and biofilm experiments was described by Novick, R. P. 1967. For plating, Luria broth (LB) medium mix with 2.0% agar was used. For all experiments including bacterial biofilms, AB minimal medium supplemented with glucose was used except if different is mentioned. […] The continuous flow system is based on once through flow chambers perfused with sterile AB minimal medium containing 0.3 mM glucose as described by Christensen et al. (1999). Continuous flow biofilm tolerance to acetic acid was assessed by growing P. aeruginosa or S. aureus biofilms for three days, then subsequently at day three to four supplementing the AB minimal medium with different concentrations of acetic acid or HCl (HCL served as a as control to acetic acid treatments). […] Due to the buffer capacity of the AB minimal medium used, the pH of the solution became 4.33. […] After the treatment the biofilm biomasses were harvested mechanically from the flow chambers and plated on LB plates for determination of viability. […] The kinetics of antimicrobial activity against mature biofilms was tested by treating a 3-day-old continuous flow chamber biofilms of either P. aeruginosa with 0.5% or S. aureus with 1.0% acetic acid for 24 hours. Due to the buffer capacity of the AB minimal medium used the pH of the solution became 4.33. […] After the treatment the biofilms were harvested mechanically, by scraping with a sterile scalpel, from the flow chambers and plated on LB plates for determination of viable counts.
# [2] = tested on: static P. aeruginosa biofilms; test: static 24 hour old biofilm in microtiter dishes, CFU after treatment; assay type: cell-based; details: for antimicrobial effect on biofilm (CFU): 0.5% acetic acid
# Description: AB minimal medium without acetic acid adjusted to different pH values was used as control.
# AB minimal medium supplemented with increasing concentrations of tobramycin served as control. The biofilm were harvested and plated on LB plates to determine the CFU after treatment (For visual appearance “no growth” is arbitrarily given a CFU value of 2).
# AB minimal medium without acetic acid, but supplemented with increasing concentrations of tobramycin served as control.
# The wild-type P. aeruginosa PAO1 used for the planktonic and biofilm experiments was obtained from the Pseudomonas Genetic Stock Center (www.pseudomonas.med.ecu.edu, strain PAO0001). The wild-type S. aureus 8325-4, used for planktonic and biofilm experiments was described by Novick, R. P. 1967.
# For plating, Luria broth (LB) medium mix with 2.0% agar was used. For all experiments including bacterial biofilms, AB minimal medium supplemented with glucose was used except if different is mentioned.
# (§2) The static biofilm setup is based on biofilms growing in microtiter dishes with AB minimal medium containing 0.3 mM glucose as described by O'toole et al (1999). Planktonic cultures were grown in shake flasks at 37° C.
# (§3) Static biofilm tolerance to acetic acid was assessed by exchanging the AB minimal medium of 24 h old biofilms with AB minimal medium supplemented with different concentrations of acetic acid or HCl as control. To raise the pH of either acetic acid or HCl, NaOH was added in different concentrations.
# (§4) To elucidate a synergistic antimicrobial effect of acetic acid and antibiotics, static biofilms of P. aeruginosa were grown for 24 hours prior to subsequent treatment with increasing concentrations of tobramycin and 0.5% acetic acid in the pH interval 3-6.85. The pH was adjusted by supplementing the AB minimal medium with either HCl or NaOH.
# [3] = tested on: S. aureus biofilms; details: for eradication of mature biofilm (viability on LB plates): 24 hours
# Description: as §1
# [4] = tested on: clinical mucoid P. aeruginosa isolate; details: 0.5% acetic acid, pH below 4.76
# Experimental: as §2, §3, §4
# [5] = tested on: clinical non-mucoid P. aeruginosa isolate; details: 0.5% acetic acid, pH below 4.76
# Experimental: as §2, §3, §4
# [6] = 0.5% acetic acid, AB minimal medium, pH 4.33
# [7] = 1.0% acetic acid, AB minimal medium, pH 4.33
structure (smiles),measurement,setting,value
"Cl [HCl, reference compound]",eradication of mature biofilm (viability on LB plates),[1]; AB minimal medium adjusted to pH 4.33 using HCl,no effect
"NC[C@H]1O[C@H](O[C@H]2[C@H](O)[C@@H](O[C@H]3O[C@H](CO)[C@@H](O)[C@H](N)[C@H]3O)[C@H](N)C[C@@H]2N)[C@H](N)C[C@@H]1O [Tobramycin, tobramycin, reference compound]",reduction of bacterial viability,[2]; tobramycin alone at concentrations above 12.5 μg/ml,5 fold
CC(=O)O [acetic acid],eradication of mature biofilm (viability on LB plates),[3]; [6],reduced the number of viable cells
same,eradication of mature biofilm,[3]; 1.0% acetic acid in sterile miliQ water,Complete eradication
same,eradication of mature biofilm (viability on LB plates),[3]; [7],complete eradication
same,time to complete killing of all bacteria,[3]; [7],3 h
same,effect of acetic acid alone on biofilm,[2],decreasing
same,antibacterial effect on biofilm (CFU),"[2]; 0.5% acetic acid alone, pH 6.85",no antibacterial effect
same,antimicrobial effect on biofilm (CFU),[2]; pH 5,reduced effect
same,antimicrobial effect on biofilm (CFU),[2]; pH 5.5 and above,no effect
same,antimicrobial effect on biofilm (CFU),[2]; pH interval 3-4.76,eradicated biofilms
same,eradication of biofilm (CFU),[4],eradicates the biofilms
same,eradication of biofilm (CFU),[5],eradicates the biofilms
same,eradication of mature biofilm,[1]; 0.5% acetic acid in sterile miliQ water,Complete eradication
same,eradication of mature biofilm (viability on LB plates),[1]; [6],completely eradicated
same,time to complete killing of all bacteria,[1]; [6],3 h
same,eradication of mature biofilm (viability on LB plates),[1]; [7],completely eradicated
